Consider 15 molecules from patent US12552825B2 (Zikani Therapeutics, Inc., priority 2019, dated 2026).

Type in all cases: cell-based
In test [1] the test system is P. aeruginosa MP-3. As to the kind of experiment: MIC determination by CLSI broth dilution, P. aeruginosa MP-3. Conditions: Pseudomonas aeruginosa, MP3, strain MP-3.
Test [2] relates to S. aureus MP-12. As to the kind of experiment: microbe, parasite or virus in culture. Conditions: Staphylococcus aureus, MP12, read-out: MIC S. aureus MP-12.
Test [3] deals with K. pneumoniae MP-648. The experiment in a line: MIC determination by CLSI broth dilution, K. pneumoniae MP-648. Conditions: strain MP-648; for MIC: Klebsiella pneumoniae, MP648, CLSI broth dilution. Background: In broth dilution the organism is exposed to a series of concentrations in liquid medium.
Test [4] relates to A. baumannii MP-15. As to the kind of experiment: MIC determination by CLSI broth dilution, A. baumannii MP-15. Conditions: Acinetobacter baumannii, MP15, strain MP-15, read-out: MIC A. baumanii MP-15.
Test [5] concerns K. pneumoniae MP-546. As to the kind of experiment: MIC determination by CLSI broth dilution, K. pneumoniae MP-546. Conditions: strain MP-546; for MIC: Klebsiella pneumoniae, MP546, CLSI broth dilution.
In test [6] the test system is E. coli MP-4. The experiment in a line: MIC determination by CLSI broth dilution, E. coli MP-4. Conditions: strain MP-4; for MIC: Escherichia coli, MP4, CLSI broth dilution.

Molecules are shown by their SMILES. Values after ≈ are worked out from the molar mass of the structure shown.

As to `CCN(C)CC[C@@H](O)[C@@H]1COC(=O)C(C)(C)C(=O)[C@H](C)[C@@H](O[C@@H]2O[C@H](C)C[C@H](N(C)C)[C@H]2O)[C@](C)(OC)C[C@@H](C)CN1C` [Compound 3], the MIC in test [1] is over 32 µg/mL; in test [2], 4 to 32 µg/mL (≈ 6.5 to 52 µM); in test [3], under 4 µg/mL; in test [4] it was over 32 µg/mL; in test [5], under 4 µg/mL; in test [6], under 4 µg/mL.
Consider `CO[C@]1(C)C[C@@H](C)CN(C)[C@H](CCCN2CCCC2)COC(=O)C(C)(C)C(=O)[C@H](C)[C@H]1O[C@@H]1O[C@H](C)C[C@H](N(C)C)[C@H]1O` [Compound 161, (3R,6R,8R,9R,10R)-9-(((2S,3R,4S,6R)-4-(dimethylamino)-3-hydroxy-6-methyltetrahydro-2H-pyran-2-yl)oxy)-8-methoxy-4,6,8,10,12,12-hexamethyl-3-(3-(pyrrolidin-1-yl)propyl)-1-oxa-4-azacyclotridecane-11,13-dione], for which the MIC is 4 to 32 µg/mL (≈ 6.54 to 52.3 µM) in test [1]; under 4 µg/mL in test [2]; under 4 µg/mL in test [3]; over 32 µg/mL in test [4]; under 4 µg/mL in test [5]; under 4 µg/mL in test [6].
Consider `CCN1C[C@H](C)C[C@@](C)(OC)[C@H](O[C@@H]2O[C@H](C)C[C@H](N(C)C)[C@H]2O)[C@@H](C)C(=O)C(C)(C)C(=O)OC[C@@H]1CCCN1CCCC1` [Compound 87, (3S,6R,8R,9R,10R)-9-(((2S,3R,4S,6R)-4-(dimethylamino)-3-hydroxy-6-methyltetrahydro-2H-pyran-2-yl)oxy)-4-ethyl-8-methoxy-6,8,10,12,12-pentamethyl-3-(3-(pyrrolidin-1-yl)propyl)-1-oxa-4-azacyclotridecane-11,13-dione], for which the MIC in test [1] was over 32 µg/mL; in test [2] it was under 4 µg/mL; in test [3] it was under 4 µg/mL; in test [4], over 32 µg/mL; in test [5] it was under 4 µg/mL; in test [6], under 4 µg/mL.
For `CO[C@]1(C)C[C@@H](C)CN(C)[C@@H](CCCN2CCC[C@@H]2C)COC(=O)C(C)(C)C(=O)[C@H](C)[C@H]1O[C@@H]1O[C@H](C)C[C@H](N(C)C)[C@H]1O` [Compound 117, (3S,6R,8R,9R,10R)-9-(((2S,3R,4S,6R)-4-(dimethylamino)-3-hydroxy-6-methyltetrahydro-2H-pyran-2-yl)oxy)-8-methoxy-4,6,8,10,12,12-hexamethyl-3-(3-((S)-2-methylpyrrolidin-1-yl)propyl)-1-oxa-4-azacyclotridecane-11,13-dione], the MIC was over 32 µg/mL in test [1]; under 4 µg/mL in test [2]; under 4 µg/mL in test [3]; over 32 µg/mL in test [4]; under 4 µg/mL in test [5]; under 4 µg/mL in test [6].
Regarding `CCCN1CCC(C[C@@H]2COC(=O)C(C)(C)C(=O)[C@H](C)[C@@H](O[C@@H]3O[C@H](C)C[C@H](N(C)C)[C@H]3O)[C@](C)(OC)C[C@@H](C)CN2CC)CC1` [Compound 102, (3R,6R,8R,9R,10R)-9-(((2S,3R,4S,6R)-4-(dimethylamino)-3-hydroxy-6-methyltetrahydro-2H-pyran-2-yl)oxy)-4-ethyl-8-methoxy-6,8,10,12,12-pentamethyl-3-((1-propylpiperidin-4-yl)methyl)-1-oxa-4-azacyclotridecane-11,13-dione], the MIC in test [1] was over 32 µg/mL; in test [2], 4 to 32 µg/mL (≈ 6.12 to 48.9 µM); in test [3], under 4 µg/mL; in test [4], 4 to 32 µg/mL (≈ 6.12 to 48.9 µM); in test [5], under 4 µg/mL; in test [6], under 4 µg/mL.
Turning to `CO[C@]1(C)C[C@@H](C)CN(C)[C@@H]([C@H](O)C2CCN(CC3CCCCC3)CC2)COC(=O)C(C)(C)C(=O)[C@H](C)[C@H]1O[C@@H]1O[C@H](C)C[C@H](N(C)C)[C@H]1O` [Compound 25], the MIC in test [1] is over 32 µg/mL; in test [2] it was over 32 µg/mL; in test [3], 4 to 32 µg/mL (≈ 5.63 to 45.1 µM); in test [4], over 32 µg/mL; in test [5], 4 to 32 µg/mL (≈ 5.63 to 45.1 µM); in test [6], under 4 µg/mL.
For `CO[C@]1(C)C[C@@H](C)CN(C)[C@H](CC2CCN(Cc3ccncc3)CC2)COC(=O)C(C)(C)C(=O)[C@H](C)[C@H]1O[C@@H]1O[C@H](C)C[C@H](N(C)C)[C@H]1O` [Compound 61], the MIC in test [1] was over 32 µg/mL; in test [2] it was 4 to 32 µg/mL (≈ 5.81 to 46.4 µM); in test [3], 4 to 32 µg/mL (≈ 5.81 to 46.4 µM); in test [4], over 32 µg/mL; in test [5] it was 4 to 32 µg/mL (≈ 5.81 to 46.4 µM); in test [6], under 4 µg/mL.
Turning to `CO[C@]1(C)C[C@@H](C)CN(C)[C@H](C=C2CCN(CC3CC3)CC2)COC(=O)C(C)(C)C(=O)[C@H](C)[C@H]1O[C@@H]1O[C@H](C)C[C@H](N(C)C)[C@H]1O` [Compound 150], the MIC in test [1] was over 32 µg/mL; in test [2], 4 to 32 µg/mL (≈ 6.15 to 49.2 µM); in test [3] it was 4 to 32 µg/mL (≈ 6.15 to 49.2 µM); in test [4] it was over 32 µg/mL; in test [5] it was under 4 µg/mL; in test [6], under 4 µg/mL.
As for `CO[C@]1(C)C[C@@H](C)CN(C)[C@@H](CCCN2CCC(F)CC2)COC(=O)C(C)(C)C(=O)[C@H](C)[C@H]1O[C@@H]1O[C@H](C)C[C@H](N(C)C)[C@H]1O` [Compound 103, (3S,6R,8R,9R,10R)-9-(((2S,3R,4S,6R)-4-(dimethylamino)-3-hydroxy-6-methyltetrahydro-2H-pyran-2-yl)oxy)-3-(3-(4-fluoropiperidin-1-yl)propyl)-8-methoxy-4,6,8,10,12,12-hexamethyl-1-oxa-4-azacyclotridecane-11,13-dione], the MIC in test [1] is over 32 µg/mL; in test [2], 4 to 32 µg/mL (≈ 6.21 to 49.7 µM); in test [3], under 4 µg/mL; in test [4], over 32 µg/mL; in test [5], under 4 µg/mL; in test [6] it was under 4 µg/mL.
As for `CO[C@]1(C)C[C@@H](C)CN(C)[C@@H]([C@H](O)C2CCN(CC3CC3)CC2)COC(=O)C(C)(C)C(=O)[C@H](C)[C@H]1O[C@@H]1O[C@H](C)C[C@H](N(C)C)[C@H]1O` [Compound 23, (3R,6R,8R,9R,10R)-3-((R)-(1-(cyclopropylmethyl)piperidin-4-yl)(hydroxy)methyl)-9-(((2S,3R,4S,6R)-4-(dimethylamino)-3-hydroxy-6-methyltetrahydro-2H-pyran-2-yl)oxy)-8-methoxy-4,6,8,10,12,12-hexamethyl-1-oxa-4-azacyclotridecane-11,13-dione], the MIC was over 32 µg/mL in test [1]; 4 to 32 µg/mL (≈ 5.99 to 47.9 µM) in test [2]; 4 to 32 µg/mL (≈ 5.99 to 47.9 µM) in test [3]; over 32 µg/mL in test [4]; 4 to 32 µg/mL (≈ 5.99 to 47.9 µM) in test [5]; 4 to 32 µg/mL (≈ 5.99 to 47.9 µM) in test [6].
For the molecule `CO[C@]1(C)C[C@@H](C)CN(C)[C@H](CC2CCN(CC3CCCCC3)CC2)COC(=O)C(C)(C)C(=O)[C@H](C)[C@H]1O[C@@H]1O[C@H](C)C[C@H](N(C)C)[C@H]1O` [Compound 55], the MIC was over 32 µg/mL in test [1]; 4 to 32 µg/mL (≈ 5.76 to 46.1 µM) in test [2]; under 4 µg/mL in test [3]; over 32 µg/mL in test [4]; under 4 µg/mL in test [5]; under 4 µg/mL in test [6].
Regarding `CO[C@]1(C)C[C@@H](C)CN(C)[C@H]([C@H](O)CCN2CCCC2)COC(=O)C(C)(C)C(=O)[C@H](C)[C@H]1O[C@@H]1O[C@H](C)C[C@H](N(C)C)[C@H]1O` [Compound 78, (3S,6R,8R,9R,10R)-9-(((2S,3R,4S,6R)-4-(Dimethylamino)-3-hydroxy-6-methyltetrahydro-2H-pyran-2-yl)oxy)-3-((R)-1-hydroxy-3-(pyrrolidin-1-yl)propyl)-8-methoxy-4,6,8,10,12,12-hexamethyl-1-oxa-4-azacyclotridecane-11,13-dione], the MIC is over 32 µg/mL in test [1]; under 4 µg/mL in test [2]; under 4 µg/mL in test [3]; over 32 µg/mL in test [4]; under 4 µg/mL in test [5]; under 4 µg/mL in test [6].
In the case of `CCC(CCNCC(C)C)C[C@@H]1COC(=O)C(C)(C)C(=O)[C@H](C)[C@@H](O[C@@H]2O[C@H](C)C[C@H](N(C)C)[C@H]2O)[C@](C)(OC)C[C@@H](C)CN1C` (stereo partly drawn) [Compound 53], the MIC is over 32 µg/mL in test [1]; 4 to 32 µg/mL (≈ 6.1 to 48.8 µM) in test [2]; under 4 µg/mL in test [3]; over 32 µg/mL in test [4]; under 4 µg/mL in test [5]; under 4 µg/mL in test [6].
In the case of `CO[C@]1(C)C[C@@H](C)CN(C)[C@H]([C@@H](O)C2CCN(CC3CC3)CC2)COC(=O)C(C)(C)C(=O)[C@H](C)[C@H]1O[C@@H]1O[C@H](C)C[C@H](N(C)C)[C@H]1O` [Compound 26], the MIC in test [1], in test [2] and in test [4] was over 32 µg/mL each time. In test [3] (CLSI broth dilution), the “MIC K. pneumoniae MP-648” value was “++ (values of greater than 4 mg/L and less than or equal to 32 mg/L)”. In addition, the “MIC K. pneumoniae MP-546” value in test [5] (CLSI broth dilution) was “++ (values of greater than 4 mg/L and less than or equal to 32 mg/L)”. In test [6] (CLSI broth dilution), the “MIC E. coli MP-4” value was “+++ (values less than or equal to 4 mg/L)”.
Take `CO[C@]1(C)C[C@@H](C)CN(C)[C@@H](CCCN2CC[C@H](F)C2)COC(=O)C(C)(C)C(=O)[C@H](C)[C@H]1O[C@@H]1O[C@H](C)C[C@H](N(C)C)[C@H]1O` [Compound 125, (3S,6R,8R,9R,10R)-9-(((2S,3R,4S,6R)-4-(dimethylamino)-3-hydroxy-6-methyltetrahydro-2H-pyran-2-yl)oxy)-3-(3-((S)-3-fluoropyrrolidin-1-yl)propyl)-8-methoxy-4,6,8,10,12,12-hexamethyl-1-oxa-4-azacyclotridecane-11,13-dione]: the MIC was over 32 µg/mL in test [1]; 4 to 32 µg/mL (≈ 6.35 to 50.8 µM) in test [2]; 4 to 32 µg/mL (≈ 6.35 to 50.8 µM) in test [3]; over 32 µg/mL in test [4]; under 4 µg/mL in test [5]; under 4 µg/mL in test [6].
